The results in this text go back to patent publication US20240390383A1, “DIOXAZINES AND THEIR USE IN TREATMENT OF GBA-RELATED DISEASES” (ZEVRA DENMARK A/S, priority 2021, published 2024).

This assay has as its target T1, GCase (GBA) in human fibroblast cell line GM10915 harboring the L444P GBA mutation (Homo sapiens, UniProt P04062, L483P).
T1 construct: Human fibroblast cell line GM10915 harboring the L444P GBA mutation; host or cells: GM10915 human fibroblasts
T1 sequence (P04062 40-536 L483P): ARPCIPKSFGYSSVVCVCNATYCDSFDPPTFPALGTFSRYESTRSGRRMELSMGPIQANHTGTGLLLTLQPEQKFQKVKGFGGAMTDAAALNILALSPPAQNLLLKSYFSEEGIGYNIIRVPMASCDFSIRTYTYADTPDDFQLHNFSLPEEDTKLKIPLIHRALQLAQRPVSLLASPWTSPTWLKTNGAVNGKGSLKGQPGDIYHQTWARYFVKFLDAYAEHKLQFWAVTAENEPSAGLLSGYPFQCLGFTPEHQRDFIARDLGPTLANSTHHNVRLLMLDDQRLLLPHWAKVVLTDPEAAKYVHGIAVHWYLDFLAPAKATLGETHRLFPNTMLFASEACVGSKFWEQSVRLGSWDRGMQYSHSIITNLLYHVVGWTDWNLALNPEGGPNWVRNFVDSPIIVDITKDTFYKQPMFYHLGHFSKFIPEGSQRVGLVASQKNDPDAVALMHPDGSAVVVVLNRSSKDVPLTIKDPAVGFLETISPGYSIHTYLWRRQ
Nature of the assay: GCase activity assay (4-MUG substrate, normalised to crystal violet staining) in L444P GBA fibroblasts. It is filed as cell-based. The conditions noted are these: 5 days exposure; for GBA EC1.5: concentration giving 150% GCase activity (1.5-fold induction), 8-point dose range; for Emax: maximum percent GCase activity relative to untreated cells in the dose range tested. Summed up:
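Patient fibroblasts GM10915 (L444P GBA) exposed to compounds for five days over an 8-point range, with fresh dosing every 2–3 days. Intact-cell GCase measured with 2.5 mM 4-MUG at pH 4.0 for 23 h at 37 °C (ex/em 365/445 nm), normalised to crystal violet, as % of PBS basal; Emax is the maximum reached.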

Molecules are shown by their SMILES.

As a reminder, the Emax is the maximal effect, on the per cent scale that the assay sets. `c1nc2n(n1)CCC(C1=NOCC(CN3CCCCC3)O1)C2` (stereo not drawn) [compound 662]: the “GBA EC1.5” value was 50 µM and the Emax is 138%.
Consider `NCC(=O)N1CCC(C2=NOCC(CN3CCCCC3)O2)CC1` (racemic) [compound 787, rac-2-amino-1-(4-(5-(piperidin-1-ylmethyl)-5,6-dihydro-1,4,2-dioxazin-3-yl)piperidin-1-yl)ethan-1-one], for which the “GBA EC1.5” value was determined as 42 µM and the Emax is 193%.
On to `CN1CCC(C2=NOCC(C)(CN3CCCCC3)O2)CC1` (stereo not drawn) [compound 870], for which the “GBA EC1.5” value stood at 6 µM and the Emax is 217%.
On the same counts, the results for `C1CCN(CCC2=NOC[C@H](CN3CCCCC3)O2)CC1` [compound 891] are 15 µM and 209%.
The matching figures for `CN(C)C(=O)N1CCCC1C1=NOCC(CN2CCCCC2)O1` (stereo not drawn) [compound 694]: 50 µM and 115%.
On to `C1CCN(CC2CON=C(CC3CCNCC3)O2)CC1` (racemic) [compound 479, rac-5-(piperidin-1-ylmethyl)-3-(piperidin-4-ylmethyl)-5,6-dihydro-1,4,2-dioxazine], for which the “GBA EC1.5” value was determined as 35 µM and the Emax came to 184%.
As for `NCC(=O)N1CCCC(C2=NOCC(CN3CCCCC3)O2)C1` (racemic) [compound 725, rac-2-amino-1-(3-(5-(piperidin-1-ylmethyl)-5,6-dihydro-1,4,2-dioxazin-3-yl)piperidin-1-yl)ethan-1-one], the “GBA EC1.5” value came to 36 µM and the Emax came to 168%.
`Cn1ccnc1CC1(C2=NOCC(CN3CCCCC3)O2)CCNCC1` (stereo not drawn) [compound 607]: the “GBA EC1.5” value came out at 50 µM and the Emax amounted to 123%.
For `CC(C)C1ON=C(C2CCNCC2)OC1CN1CCCCC1` (racemic) [compound 706, rac-6-isopropyl-5-(piperidin-1-ylmethyl)-3-(piperidin-4-yl)-5,6-dihydro-1,4,2-dioxazine], the “GBA EC1.5” value was 6 µM and the Emax was 180%.
On the same counts, the results for `C1CCN(CC2CON=C(C3(C4CCNCC4)CC3)O2)CC1` (racemic) [compound 521, rac-5-(piperidin-1-ylmethyl)-3-(1-(piperidin-4-yl)cyclopropyl)-5,6-dihydro-1,4,2-dioxazine] are 19 µM and 336%.
The matching figures for `O=C1CC(C2=NOCC(CN3CCCCC3)O2)CCN1` (stereo not drawn) [compound 649]: 50 µM and 103%.
The matching figures for `C[C@]1(C2=NOC[C@H](CN3CCCCC3)O2)CCCNC1` [compound 881]: 5 µM and 219%.
Consider `CNC(=O)CN1CCCC(C2=NOCC(CN3CCCCC3)O2)C1` (racemic) [compound 721, rac-N-methyl-2-(3-(5-(piperidin-1-ylmethyl)-5,6-dihydro-1,4,2-dioxazin-3-yl)piperidin-1-yl)acetamide], for which the “GBA EC1.5” value amounted to 33 µM and the maximal response (Emax) is 175%.
Take `C1CCN(CC2CON=C(C34CCN(CC3)C4)O2)CC1` (racemic) [compound 641, rac-3-(1-azabicyclo[2.2.1]heptan-4-yl)-5-(piperidin-1-ylmethyl)-5,6-dihydro-1,4,2-dioxazine]: the “GBA EC1.5” value turned out to be 3 µM and the maximal response (Emax) turned out to be 275%.
The matching figures for `C1CCN(CC2CON=C(C3CC4CNCC3O4)O2)CC1` (stereo not drawn) [compound 862]: 15 µM and 212%.
On the same counts, the results for `CN1CCC(C2=NOCC(CN3CCCCC3)O2)C1` (stereo not drawn) [compound 629] are 11 µM and 247%.
In the case of `COc1ccc(C2(C3=NOCC(CN4CCCCC4)O3)CCNCC2)nc1` (stereo not drawn) [compound 852], the “GBA EC1.5” value was found to be 4 µM and the Emax worked out at 203%.
As to `CN1CCO[C@@H]2CN(CC3CON=C(C4(C)CCNCC4)O3)C[C@@H]21` (stereo partly drawn) [compound 604], the “GBA EC1.5” value worked out at 50 µM and the Emax is 119%.
On the same counts, the results for `CN(C)c1ccc(CC2(C3=NOCC(CN4CCCCC4)O3)CCNCC2)cn1` (stereo not drawn) [compound 543] are 3 µM and 138%.
Take `COC1CC(C2=NOCC(CN3CCCCC3)O2)CN(C)C1` (stereo not drawn) [compound 689]: the “GBA EC1.5” value worked out at 50 µM and the Emax is 137%.
Take `C1CCN(CC2CON=C(C34CCN(CC3)CC4)O2)CC1` (racemic) [compound 642, rac-5-(piperidin-1-ylmethyl)-3-(quinuclidin-4-yl)-5,6-dihydro-1,4,2-dioxazine]: the “GBA EC1.5” value came out at 3 µM and the Emax came out at 282%.
On the same counts, the results for `COc1cc(OC)c(CNCCC2=NOCC(CN3CCCCC3)O2)cn1` (stereo not drawn) [compound 829] are 5 µM and 175%.
Take `CCCCCO[C@H]1CC[C@H](NC(=O)c2cnn3c(C)cc(C)nc23)CC1` [LTI-291, reference compound]: the “GBA EC1.5” value was 112 µM.
Consider `CC(C)(C1=NOCC(CN2CCCCC2)O1)C1CCCNC1` (racemic) [compound 473, rac-5-(piperidin-1-ylmethyl)-3-(2-(piperidin-3-yl)propan-2-yl)-5,6-dihydro-1,4,2-dioxazine di-2,2,2-trifluoroacetate], for which the “GBA EC1.5” value is 9 µM and the Emax worked out at 181%.
As to `CN1CC2CC[C@H](C1)N2CC1CON=C(C2(C)CCNCC2)O1` (stereo partly drawn) [compound 627], the “GBA EC1.5” value turned out to be 48 µM and the Emax came out at 133%.
Consider `Cc1ncccc1CC1(C2=NOCC(CN3CCCCC3)O2)CCNCC1` (racemic) [compound 561, rac-3-(4-((2-methylpyridin-3-yl)methyl)piperidin-4-yl)-5-(piperidin-1-ylmethyl)-5,6-dihydro-1,4,2-dioxazine], for which the “GBA EC1.5” value was found to be 5 µM and the Emax is 184%.
On the same counts, the results for `CN1CCCC1C1=NOCC(CN2CCCCC2)O1` (stereo not drawn) [compound 695] are 50 µM and 111%.
Turning to `c1cc(C2CCCNC2)ccc1C1=NOCC(CN2CCCCC2)O1` (stereo not drawn) [compound 856], the “GBA EC1.5” value was found to be 2 µM and the Emax worked out at 134%.
As to `CC1(C2=NOCC(CN3CCCCC3)O2)CCNC1` (racemic) [compound 465, rac-3-(3-methylpyrrolidin-3-yl)-5-(piperidin-1-ylmethyl)-5,6-dihydro-1,4,2-dioxazine], the “GBA EC1.5” value was determined as 10 µM and the Emax is 283%.
On the same counts, the results for `F[C@H]1CN[C@H](C2=NOCC(CN3CCCCC3)O2)C1` (stereo partly drawn) [compound 556] are 50 µM and 114%.
Turning to `CN(C)C(=O)N1CCC(C2=NOCC(CN3CCCCC3)O2)C1` (stereo not drawn) [compound 675], the “GBA EC1.5” value stood at 50 µM and the Emax is 102%.
On the same counts, the results for `CC1(C2=NOCC(CN3CCCCC3)O2)CNCCO1` (racemic) [compound 480, rac-3-(2-methylmorpholin-2-yl)-5-(piperidin-1-ylmethyl)-5,6-dihydro-1,4,2-dioxazine] are 16 µM and 273%.
